Source: patent publication US12667566B2, “Combination therapy of GPR119 agonists and DPP-4 inhibitors” (MANKIND PHARMA LTD., priority 2019, dated 2026)

Tests used:
[1] = system: blood glucose; test: Oral glucose tolerance test (OGTT); type: in vivo; conditions: male Sprague Dawley rats, glucose load 2 g/kg
Description: FIG. 1. Oral glucose tolerance test (OGTT) of GPR119 agonist Formula 1A in male Sprague Dawley rats. Formula 1A was administered to the rats and blood glucose was monitored post 30 min of dose administration (0-time point). After glucose administration (2 g/kg/10 ml), glucose levels were estimated at different time points (5, 15, 30, 60 & 120 min) and compared to vehicle group. Data was analysed by One-Way ANOVA followed by Dunnett's Multiple Comparison Test. *P<0.05, **P<0.01 & ***P<0.001 vs vehicle control. Vehicle used was 0.5% Tween 80 and 99.5% NaCMC in water (0.5% w/v).
OGTT study is conducted in male Sprague dawley rats. […] Vehicle (0.5% Tween 80 and 99.5% NaCMC in water (0.5% w/v) was administered to control animals and remaining groups were administered with test compound prepared in vehicle at respective doses orally. Blood samples were collected immediately after test compound administration (which was −30 min time point). Blood glucose was monitored post 30 min of dose administration (which was a zero min time point). All animals received 2 g/kg/10 ml (20%) of Glucose solution orally. After glucose administration, glucose levels were estimated at different time points (5, 15, 30, 60 & 120 min). Estimation of blood glucose level was done by strip method. […] Blood glucose AUC was calculated from the samples collected at respective time points. […]

[2] = system: active GLP-1; test: Active GLP-1 estimation; type: in vivo; conditions: male Sprague Dawley rats, oral
Description: FIG. 2. Effect of GPR119 agonist Formula 1A on active GLP-1 levels in male Sprague Dawley rats. Formula 1A was administered to the rats and GLP-1 levels were estimated at different time points (0, 5, 15, 30 & 60 min) and compared to vehicle group. Data was analysed by One-Way ANOVA followed by Dunnett's Multiple Comparison Test. *P<0.05, **P<0.01, ***P<0.001 vs vehicle control. Vehicle used was 0.5% Tween 80 and 99.5% NaCMC in water (0.5% w/v).
GLP-1 estimation is conducted in male Sprague dawley rats. Animals of 8-10 weeks old were kept for overnight fasting (only water was provided ad libitum). […] were randomized based on basal glucose values into four different groups. Vehicle (0.5% Tween 80 and 99.5% NaCMC in water (0.5% w/v) was administered to control animals and remaining groups were administered with test compound prepared in vehicle at respective doses orally.
For active GLP-1 estimation, blood was collected by retro orbital puncture under isoflurane anesthesia. Active GLP-1 levels were estimated from the collected plasma at −30, 0, 5, 15, 30 & 60 min time points. Blood collection (Approximately 400-500 μl) was done by retro orbital puncture under isoflurane anesthesia with the help of DPP-4 inhibitor (#DPP4-010, Merck-Millipore) rinsed capillaries and collected into pre-coated Eppendorf (10 μl/ml of blood) with DPP-4 inhibitor.

Row | Compound | glucose reduction compared to vehicle ([1]; 10 mg/kg) | increase in active GLP-1 secretion compared to vehicle ([2]; 10 mg/kg/wt) | glucose reduction compared to vehicle ([1]; 3 mg/kg) | increase in active GLP-1 secretion compared to vehicle ([2]; 3 mg/kg/wt)
1 | CCc1cnc(N2CCC([C@H](C)Oc3nn4cc(-c5ccc(S(C)(=O)=O)cc5F)nc4s3)CC2)nc1 [Formula IA] | 16% | 123% | – | –
2 | N[C@@H](CC(=O)N1CCn2c(nnc2C(F)(F)F)C1)Cc1cc(F)c(F)cc1F [sitagliptin, (3R)-3-amino-1-[3-(trifluoromethyl)-5,6,7,8-tetrahydro-5H-[1,2,4]triazolo-[4,3-a]pyrazin-7-yl]-4-(2,4,5-trifluorophenyl) butan-1-one] | – | – | 15% | 253%
